Experimental data as given in article PMC6268547, “A New Ursane-Type Nor-Triterpenoid from the Leaves of Eucommia ulmoides Oliv” (Molecules, 2012).

Target: T1, protein tyrosine phosphatase 1B (PTP1B) (Homo sapiens, UniProt P18031)
T1 construct: gene PTPN1; Recombinant human GST-PTP1B
T1 sequence (P18031 1-435): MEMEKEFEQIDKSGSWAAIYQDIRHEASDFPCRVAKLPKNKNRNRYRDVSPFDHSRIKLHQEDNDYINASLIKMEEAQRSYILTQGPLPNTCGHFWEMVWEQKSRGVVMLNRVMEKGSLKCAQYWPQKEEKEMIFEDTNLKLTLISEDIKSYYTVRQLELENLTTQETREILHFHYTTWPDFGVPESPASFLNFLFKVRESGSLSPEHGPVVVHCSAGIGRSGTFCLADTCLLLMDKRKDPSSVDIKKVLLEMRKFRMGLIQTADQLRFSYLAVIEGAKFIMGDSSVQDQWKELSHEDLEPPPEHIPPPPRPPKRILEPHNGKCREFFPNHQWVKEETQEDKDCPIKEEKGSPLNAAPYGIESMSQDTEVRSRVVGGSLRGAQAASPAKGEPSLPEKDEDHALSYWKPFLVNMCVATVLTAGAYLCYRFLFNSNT
Assay: pNPP hydrolysis assay with purified GST-PTP1B, absorbance at […] nm
Format: biochemical

SMILES | IC50 [µM]
C=C1[C@H](O)[C@H](O)C[C@]2(C)[C@H]3CC=C4[C@@H]5CC(C)(C)CC[C@]5(C(=O)O)CC[C@@]4(C)[C@]3(C)CC[C@@H]12 [compound 4, 2α,3α-dihydroxy-24-nor-4(23),12-oleanadien-28-oic acid] | 3.98
C[C@H]1[C@H](C)CC[C@]2(C(=O)O)CC[C@]3(C)C(=CC[C@@H]4[C@@]5(C)C[C@@H](O)[C@H](O)C(C)(C)[C@@H]5CC[C@]43C)[C@H]12 [compound 3, corosolic acid] | 0.69
